According to the NIST ThermoML archive (doi:10.1016/j.jct.2006.03.018):
± gives the expanded uncertainty stated by the source.

Assays:
[1] = refractive index (Na D-line) (dimensionless); conditions: 101.33 kPa, Liquid
[2] = 101 kPa, Liquid
[3] = refractive index (Na D-line) (dimensionless); xn = mol fraction of the nth substance listed; conditions: 101 kPa, Liquid
[4] = xn = mol fraction of the nth substance listed; conditions: 101 kPa, Liquid

SMILES: CC(C)CCO [3-methylbutan-1-ol]
- refractive index ([1]; 298.15 K): 1.405 ± 0.0025
- refractive index ([1]; 303.15 K): 1.403 ± 0.0025
- mass density ([2]; 298.15 K): 807.2 ± 6.9 kg/m3
- speed of sound ([2]; 298.15 K): 1241 ± 43 m/s
- viscosity ([2]; 298.15 K): 3.835 ± 0.44 mPa·s
- mass density ([2]; 303.15 K): 803.45 ± 7 kg/m3
- viscosity ([2]; 303.15 K): 3.261 ± 0.38 mPa·s
- mass density ([2]; 308.15 K): 791.86 ± 7.3 kg/m3

SMILES: COc1ccccc1 [anisole]
- refractive index ([1]; 298.15 K): 1.5137 ± 0.005
- refractive index ([1]; 303.15 K): 1.5113 ± 0.005
- refractive index ([1]; 308.15 K): 1.5088 ± 0.005
- mass density ([2]; 298.15 K): 989.15 ± 1.6 kg/m3
- speed of sound ([2]; 298.15 K): 1412 ± 95 m/s
- viscosity ([2]; 298.15 K): 0.988 ± 0.13 mPa·s
- mass density ([2]; 303.15 K): 984.45 ± 1.6 kg/m3
- viscosity ([2]; 303.15 K): 0.913 ± 0.12 mPa·s
- mass density ([2]; 308.15 K): 979.73 ± 1.7 kg/m3
- viscosity ([2]; 308.15 K): 0.854 ± 0.11 mPa·s

SMILES: COc1ccccc1 [anisole] + CCCO
- refractive index ([3]; 298.15 K, x1 = 0.1036): 1.4013 ± 0.005
- refractive index ([3]; 298.15 K, x1 = 0.2003): 1.4176 ± 0.005
- refractive index ([3]; 298.15 K, x1 = 0.3055): 1.4284 ± 0.005
- refractive index ([3]; 298.15 K, x1 = 0.4053): 1.4459 ± 0.005
- refractive index ([3]; 298.15 K, x1 = 0.5096): 1.461 ± 0.005
- refractive index ([3]; 298.15 K, x1 = 0.6015): 1.4737 ± 0.005
- refractive index ([3]; 298.15 K, x1 = 0.7071): 1.4864 ± 0.005
- refractive index ([3]; 298.15 K, x1 = 0.8023): 1.4955 ± 0.005
- refractive index ([3]; 298.15 K, x1 = 0.8939): 1.5046 ± 0.005
- refractive index ([3]; 298.15 K, x1 = 1): 1.5137 ± 0.005
- refractive index ([3]; 303.15 K, x1 = 0.1036): 1.3989 ± 0.005
- refractive index ([3]; 303.15 K, x1 = 0.2003): 1.4153 ± 0.005
- refractive index ([3]; 303.15 K, x1 = 0.3055): 1.4314 ± 0.005
- refractive index ([3]; 303.15 K, x1 = 0.4053): 1.4458 ± 0.005
- refractive index ([3]; 303.15 K, x1 = 0.5096): 1.4578 ± 0.005
- refractive index ([3]; 303.15 K, x1 = 0.6015): 1.4704 ± 0.005
- refractive index ([3]; 303.15 K, x1 = 0.7071): 1.482 ± 0.005
- refractive index ([3]; 303.15 K, x1 = 0.8023): 1.493 ± 0.005
- refractive index ([3]; 303.15 K, x1 = 0.8939): 1.5014 ± 0.005
- refractive index ([3]; 303.15 K, x1 = 1): 1.5113 ± 0.005
- refractive index ([3]; 308.15 K, x1 = 0.1036): 1.3966 ± 0.005
- refractive index ([3]; 308.15 K, x1 = 0.2003): 1.4129 ± 0.005
- refractive index ([3]; 308.15 K, x1 = 0.3055): 1.4287 ± 0.005
- refractive index ([3]; 308.15 K, x1 = 0.4053): 1.4426 ± 0.005
- refractive index ([3]; 308.15 K, x1 = 0.5096): 1.4542 ± 0.005
- refractive index ([3]; 308.15 K, x1 = 0.6015): 1.4673 ± 0.005
- refractive index ([3]; 308.15 K, x1 = 0.7071): 1.4793 ± 0.005
- refractive index ([3]; 308.15 K, x1 = 0.8023): 1.4897 ± 0.005
- refractive index ([3]; 308.15 K, x1 = 0.8939): 1.499 ± 0.005
- refractive index ([3]; 308.15 K, x1 = 1): 1.5088 ± 0.005
- mass density ([4]; 298.15 K, x1 = 0.1036): 816.88 ± 3.3 kg/m3
- speed of sound ([4]; 298.15 K, x1 = 0.1036): 1223 ± 43 m/s
- viscosity ([4]; 298.15 K, x1 = 0.1036): 1.564 ± 0.19 mPa·s
- mass density ([4]; 298.15 K, x1 = 0.2003): 835.8 ± 3.1 kg/m3
- speed of sound ([4]; 298.15 K, x1 = 0.2003): 1232 ± 43 m/s
- viscosity ([4]; 298.15 K, x1 = 0.2003): 1.352 ± 0.17 mPa·s
- mass density ([4]; 298.15 K, x1 = 0.3055): 856.97 ± 2.9 kg/m3
- speed of sound ([4]; 298.15 K, x1 = 0.3055): 1258 ± 44 m/s
- viscosity ([4]; 298.15 K, x1 = 0.3055): 1.166 ± 0.15 mPa·s
- mass density ([4]; 298.15 K, x1 = 0.4053): 876.55 ± 2.7 kg/m3
- speed of sound ([4]; 298.15 K, x1 = 0.4053): 1278 ± 44 m/s
- viscosity ([4]; 298.15 K, x1 = 0.4053): 1.069 ± 0.14 mPa·s
- mass density ([4]; 298.15 K, x1 = 0.5096): 897.74 ± 2.4 kg/m3
- speed of sound ([4]; 298.15 K, x1 = 0.5096): 1297 ± 45 m/s
- viscosity ([4]; 298.15 K, x1 = 0.5096): 1.003 ± 0.13 mPa·s
- mass density ([4]; 298.15 K, x1 = 0.6015): 915.39 ± 2.2 kg/m3
- speed of sound ([4]; 298.15 K, x1 = 0.6015): 1314 ± 45 m/s
- viscosity ([4]; 298.15 K, x1 = 0.6015): 0.989 ± 0.13 mPa·s
- mass density ([4]; 298.15 K, x1 = 0.7071): 934.31 ± 2.1 kg/m3
- speed of sound ([4]; 298.15 K, x1 = 0.7071): 1330 ± 45 m/s
- viscosity ([4]; 298.15 K, x1 = 0.7071): 0.947 ± 0.12 mPa·s
- mass density ([4]; 298.15 K, x1 = 0.8023): 952.23 ± 1.9 kg/m3
- speed of sound ([4]; 298.15 K, x1 = 0.8023): 1350 ± 46 m/s
- viscosity ([4]; 298.15 K, x1 = 0.8023): 0.943 ± 0.12 mPa·s
- mass density ([4]; 298.15 K, x1 = 0.8939): 970.23 ± 1.7 kg/m3
- speed of sound ([4]; 298.15 K, x1 = 0.8939): 1370 ± 46 m/s
- viscosity ([4]; 298.15 K, x1 = 0.8939): 0.932 ± 0.12 mPa·s
- mass density ([4]; 298.15 K, x1 = 1): 989.15 ± 1.6 kg/m3
- speed of sound ([4]; 298.15 K, x1 = 1): 1412 ± 47 m/s
- viscosity ([4]; 298.15 K, x1 = 1): 0.988 ± 0.13 mPa·s
- mass density ([4]; 303.15 K, x1 = 0.1036): 812.68 ± 3.4 kg/m3
- viscosity ([4]; 303.15 K, x1 = 0.1036): 1.392 ± 0.17 mPa·s
- mass density ([4]; 303.15 K, x1 = 0.2003): 831.49 ± 3.2 kg/m3
- viscosity ([4]; 303.15 K, x1 = 0.2003): 1.198 ± 0.15 mPa·s
- mass density ([4]; 303.15 K, x1 = 0.3055): 852.54 ± 2.9 kg/m3
- viscosity ([4]; 303.15 K, x1 = 0.3055): 1.094 ± 0.14 mPa·s
- mass density ([4]; 303.15 K, x1 = 0.4053): 872.04 ± 2.7 kg/m3
- viscosity ([4]; 303.15 K, x1 = 0.4053): 0.98 ± 0.12 mPa·s
- mass density ([4]; 303.15 K, x1 = 0.5096): 893.14 ± 2.5 kg/m3
- viscosity ([4]; 303.15 K, x1 = 0.5096): 0.921 ± 0.12 mPa·s
- mass density ([4]; 303.15 K, x1 = 0.6015): 910.74 ± 2.3 kg/m3
- viscosity ([4]; 303.15 K, x1 = 0.6015): 0.903 ± 0.12 mPa·s
- mass density ([4]; 303.15 K, x1 = 0.7071): 929.62 ± 2.1 kg/m3
- viscosity ([4]; 303.15 K, x1 = 0.7071): 0.859 ± 0.11 mPa·s
- mass density ([4]; 303.15 K, x1 = 0.8023): 947.51 ± 1.9 kg/m3
- viscosity ([4]; 303.15 K, x1 = 0.8023): 0.861 ± 0.11 mPa·s
- mass density ([4]; 303.15 K, x1 = 0.8939): 965.5 ± 1.8 kg/m3
- viscosity ([4]; 303.15 K, x1 = 0.8939): 0.869 ± 0.11 mPa·s
- mass density ([4]; 303.15 K, x1 = 1): 984.45 ± 1.6 kg/m3
- viscosity ([4]; 303.15 K, x1 = 1): 0.913 ± 0.12 mPa·s
- mass density ([4]; 308.15 K, x1 = 0.1036): 808.48 ± 3.4 kg/m3
- viscosity ([4]; 308.15 K, x1 = 0.1036): 1.242 ± 0.15 mPa·s
- mass density ([4]; 308.15 K, x1 = 0.2003): 827.18 ± 3.2 kg/m3
- viscosity ([4]; 308.15 K, x1 = 0.2003): 1.078 ± 0.14 mPa·s
- mass density ([4]; 308.15 K, x1 = 0.3055): 848.11 ± 3 kg/m3
- viscosity ([4]; 308.15 K, x1 = 0.3055): 0.961 ± 0.12 mPa·s
- mass density ([4]; 308.15 K, x1 = 0.4053): 867.53 ± 2.8 kg/m3
- viscosity ([4]; 308.15 K, x1 = 0.4053): 0.879 ± 0.11 mPa·s
- mass density ([4]; 308.15 K, x1 = 0.5096): 888.55 ± 2.5 kg/m3
- viscosity ([4]; 308.15 K, x1 = 0.5096): 0.838 ± 0.11 mPa·s
- mass density ([4]; 308.15 K, x1 = 0.6015): 906.1 ± 2.4 kg/m3
- viscosity ([4]; 308.15 K, x1 = 0.6015): 0.821 ± 0.11 mPa·s
- mass density ([4]; 308.15 K, x1 = 0.7071): 924.94 ± 2.2 kg/m3
- viscosity ([4]; 308.15 K, x1 = 0.7071): 0.802 ± 0.11 mPa·s
- mass density ([4]; 308.15 K, x1 = 0.8023): 942.78 ± 2 kg/m3
- viscosity ([4]; 308.15 K, x1 = 0.8023): 0.795 ± 0.11 mPa·s
- mass density ([4]; 308.15 K, x1 = 0.8939): 960.74 ± 1.8 kg/m3
- viscosity ([4]; 308.15 K, x1 = 0.8939): 0.792 ± 0.1 mPa·s
- mass density ([4]; 308.15 K, x1 = 1): 979.73 ± 1.7 kg/m3
- viscosity ([4]; 308.15 K, x1 = 1): 0.854 ± 0.11 mPa·s
